Experimental data as given in US20090048340A1, “GROWTH HORMONE SECRETION REGULATOR” (AJINOMOTO CO., INC., priority 2006, published 2009).

What was measured:
[1] = tested on: growth hormone secretion; assay: Growth hormone secretion regulating function, intravenous administration of amino acid solutions; type: in vivo, shiba-goat (capra hircus); settings: aspartic acid 0.75 mmol/kg, valine 1.0 mmol/kg, blood 6 h before to 12 h after administration, n=3
Procedure: The growth hormone secretion regulating function of amino acids to be used in the present invention was evaluated by investigating changes in growth hormone secretion caused by intravenous administration of amino acid solutions. The details are as follows.
Special grade aspartic acid (Ajinomoto Co., Inc.) and valine (Ajinomoto Co., Inc.) were used as L-type amino acid samples. The amino acids were dissolved in purified water or an aqueous solution of 5% carboxymethylcellulose and administered as aqueous solutions (pH 7.0 to 8.0).
Two- to four-year-old mature castrated male and female shiba-goats (25 to 35 kg), purchased from the farm of Tokyo University, were domesticated for about one week. Aspartic acid (0.75 mmol/kg), valine (1.0 mmol/kg), and a mixture thereof, prepared in the same way as above, were administered intravenously via a cannula placed in the jugular vein, and blood was collected continuously during a period between 6 hours before and 12 hours after administration every 15 minutes via the cannula placed in the jugular vein, followed by investigation of changes in growth hormone secretion (n=3). The concentrations of the growth hormone in blood were measured by radioimmunoassay based on a double antibody method.
The growth hormone and antibody used in the radioimmunoassay were purchased from National institute of Diabetes and Digestive and Kidney Diseases. The other procedures were performed based on a reference (Hashizume T et al., Animal Science Technology 62: 343-350). The minimum measured concentration was 1 ng/ml, while the maximum measured concentration was 512 ng/ml. The intra-assay variation and inter-assay variation were 11.6% and 12.3%, respectively.

[2] = tested on: growth hormone secretion; assay: Growth hormone secretion regulating function, oral administration of amino acid solutions; type: in vivo, shiba-goat (capra hircus); settings: sodium aspartate monohydrate 5 mmol/kg, valine 5 mmol/kg, blood 6 h before to 12 h after administration, n=3
Procedure: Two- to four-year-old mature castrated male and female shiba-goats (25 to 35 kg), purchased from the farm of Tokyo University, were domesticated for about one week. Sodium aspartate monohydrate (5 mmol/kg, 861 mg/kg), valine (5 mmol/kg, 586 mg/kg), and a mixture thereof, prepared in the same way as Example 1, were administered orally to the shiba-goats, and blood was collected continuously during a period between 6 hours before and 12 hours after administration every 15 minutes via a cannula placed in the jugular vein, followed by investigation of changes in growth hormone secretion (n=3). The concentrations of the growth hormone in blood were measured by immunoassay in which europium was used.
The growth hormone and antibody used in the immunoassay were purchased from National institute of Diabetes and Digestive and Kidney Diseases. The other procedures were performed based on a reference (Sugino T et al., Biochemical and biophysical research communications 295: 255-60). The minimum measured concentration was 2 ng/ml, while the maximum measured concentration was 126 ng/ml. The intra-assay variation and inter-assay variation were 11.3% and 8.6%, respectively.

CC(C)[C@H](N)C(=O)O [valine]
no changes: amount of the growth hormone secreted in a pulse-like manner [1] | secretion patterns of the growth hormone secreted in a pulse-like manner at a certain frequency [1] | amount of the growth hormone secreted in a pulse-like manner [2] | secretion patterns of the growth hormone secreted in a pulse-like manner at a certain frequency [2]

N[C@@H](CC(=O)O)C(=O)O [aspartic acid]
no changes: amount of the growth hormone secreted in a pulse-like manner [1] | secretion patterns of the growth hormone secreted in a pulse-like manner at a certain frequency [1] | amount of the growth hormone secreted in a pulse-like manner [2] | secretion patterns of the growth hormone secreted in a pulse-like manner at a certain frequency [2]
